Drawing on PMC9845116 (Saudi Pharmaceutical Journal : SPJ, 2022), this text covers IC50 for 22 compounds.

Read-outs that look alike come from different tables or passages of the source. Where only a bound is given, the exact number is not on record here.

Common to all, as to format: cell-based
In assay [1] the test system is HepG2. Description: MTT cell viability assay, HepG2. The settings on record: read-out: IC50(μM) HepG2. On the technique in general: Formazan colour is commonly taken as a measure of viable cells.
For assay [2], the system named is A549. The assay is described as follows: MTT cell viability assay, A549. The settings on record: read-out: IC50(μM) A549.
For assay [3], the system named is Hela. The assay is described as follows: MTT cell viability assay, Hela. The settings on record: 48 h.
The test system of assay [4] is MCF-7. Description: MTT cell viability assay, MCF-7.
The mark [5] stands for this setting: Homo sapiens, HeLa, read-out: IC50(μM) Hela, MTT, 48 h, Hela.
Setting [6] is: Homo sapiens, MCF7, 48 h, read-out: IC50(μM) MCF-7, MTT, 48 h, MCF-7.
Setting [7] is: read-out: IC50(μM) Hela, MTT, Hela.
The mark [8] stands for this setting: read-out: IC50(μM) MCF-7, MTT, 48 h, MCF-7.

For the compound `COc1cc(OC)c(C(=O)/C=C/c2cn(C)c3ccccc23)c(OC)c1` [B11, (E)-3-(1-methyl-1H-indol-3-yl)-1-(2,4,6-trimethoxyphenyl)prop-2-en-1-one], the IC50 (in general, the midpoint of a concentration-inhibition curve) is > 100 µM in assay [1] (Homo sapiens, HepG2, 48 h); > 100 µM in assay [2] (Homo sapiens, A549, 48 h); > 100 µM in assay [3] (setting [5]); > 100 µM in assay [4] (setting [6]).

For the compound `COc1cc(OC)c(C(=O)/C=C/c2ccc(OCc3ccsc3)cc2)c(OC)c1` [C7, (E)-3-(4-(thiophen-3-ylmethoxy)phenyl)-1-(2,4,6-trimethoxyphenyl)prop-2-en-1-one], the IC50 in assay [1] (Homo sapiens, HepG2, 48 h) is 51.1 ± 2.1 µM; in assay [2] (Homo sapiens, A549, 48 h) it was > 100 µM; in assay [3] (setting [5]) it was 35 ± 1.17 µM; in assay [4] (setting [6]), 87.8 ± 2.7 µM.

As for `COc1cc(OC)c(C(=O)/C=C/c2ccc(OCC3CCCC3)cc2)c(OC)c1` [C2, (E)-3-(4-(cyclopentylmethoxy)phenyl)-1-(2,4,6-trimethoxyphenyl)prop-2-en-1-one], the IC50 in assay [1] (Homo sapiens, HepG2, 48 h) was > 100 µM; in assay [2] (Homo sapiens, A549, 48 h), 73.6 ± 1.17 µM; in assay [3] (setting [5]), 22.6 ± 1.11 µM; in assay [4] (setting [6]) it was > 100 µM.

For `COc1cc(OC)c(C(=O)/C=C/c2ccc(Br)cc2)c(OC)c1` [B4, (E)-3-(4-bromophenyl)-1-(2,4,6-trimethoxyphenyl)prop-2-en-1-one], the IC50 in assay [1] (Homo sapiens, HepG2, 48 h) amounted to 13 ± 0.74 µM; in assay [2] (Homo sapiens, A549, 48 h) it was 19.8 ± 0.98 µM; in assay [3] (setting [5]) it was 11.8 ± 0.86 µM; in assay [4] (setting [6]), 12.8 ± 0.64 µM.

As for `COc1cc(OC)c(C(=O)/C=C/c2ccsc2)c(OC)c1` [B5, (E)-3-(thiophen-3-yl)-1-(2,4,6-trimethoxyphenyl)prop-2-en-1-one], the IC50 was 19.9 ± 1.31 µM in assay [1] (Homo sapiens, HepG2, 48 h); 46.9 ± 1.15 µM in assay [2] (Homo sapiens, A549, 48 h); 37.2 ± 1.22 µM in assay [3] (setting [5]); 35.8 ± 1.35 µM in assay [4] (setting [6]).

Turning to “(E)-3-(3,4-dimethoxyphenyl)-1-(2,4,6-trimethoxyphenyl)prop-2-en-1-one [A3]”, the IC50 in assay [1] (MTT, 48 h, HepG2) was 35.4 ± 1.37 µM; in assay [2] (MTT, 48 h, A549) it was > 100 µM; in assay [3] (setting [7]), 71.5 ± 1.54 µM; in assay [4] (setting [8]), > 100 µM.

In the case of `COc1cc(OC)c(C(=O)/C=C/c2cc3cc(F)ccc3[nH]c2=O)c(OC)c1` [B16, (E)-6-fluoro-3-(3-oxo-3-(2,4,6-trimethoxyphenyl)prop-1-en-1-yl)quinolin-2(1H)-one], the IC50 in assay [1] (Homo sapiens, HepG2, 48 h) was 15.1 ± 0.62 µM; in assay [2] (Homo sapiens, A549, 48 h), 18.4 ± 0.65 µM; in assay [3] (setting [5]), 18.1 ± 1.04 µM; in assay [4] (setting [6]), 12.6 ± 0.73 µM.

Regarding `COc1cc(OC)c(C(=O)/C=C/c2ccc(OCc3cc4ccccc4[nH]c3=O)cc2)c(OC)c1` [C10, (E)-3-((4-(3-oxo-3-(2,4,6-trimethoxyphenyl)prop-1-en-1-yl)phenoxy)methyl)quinolin-2(1H)-one], the IC50 in assay [1] (Homo sapiens, HepG2, 48 h) was > 100 µM; in assay [2] (Homo sapiens, A549, 48 h) it was > 100 µM; in assay [3] (setting [5]), > 100 µM; in assay [4] (setting [6]), > 100 µM.

As to `COc1cc(OC)c(C(=O)/C=C/C2=CSC(Br)=CC2)c(OC)c1` [B6, (E)-3-(6-bromo-4H-thiopyran-3-yl)-1-(2,4,6-trimethoxyphenyl)prop-2-en-1-one], the IC50 is 19.5 ± 0.59 µM in assay [1] (Homo sapiens, HepG2, 48 h); 31.3 ± 0.63 µM in assay [2] (Homo sapiens, A549, 48 h); 18.9 ± 0.73 µM in assay [3] (setting [5]); 26.3 ± 0.94 µM in assay [4] (setting [6]).

Turning to `COc1cc(OC)c(C(=O)/C=C/c2cc3ccccc3[nH]c2=O)c(OC)c1` [B14, (E)-3-(3-oxo-3-(2,4,6-trimethoxyphenyl)prop-1-en-1-yl)quinolin-2(1H)-one], the IC50 in assay [1] (Homo sapiens, HepG2, 48 h) was determined as 17.6 ± 0.74 µM; in assay [2] (Homo sapiens, A549, 48 h), 10.7 ± 0.74 µM; in assay [3] (setting [5]), 35 ± 0.83 µM; in assay [4] (setting [6]) it was 7.92 ± 0.59 µM.

Consider `COc1cc(OC)c(C(=O)/C=C/c2ccc(OCc3ccccc3)cc2)c(OC)c1` [C4, (E)-3-(4-(benzyloxy)phenyl)-1-(2,4,6-trimethoxyphenyl)prop-2-en-1-one], for which the IC50 was > 100 µM in assay [1] (Homo sapiens, HepG2, 48 h); > 100 µM in assay [2] (Homo sapiens, A549, 48 h); > 100 µM in assay [3] (setting [5]); > 100 µM in assay [4] (setting [6]).

`COc1cc(OC)c(C(=O)/C=C/c2cnc3ccccc3c2)c(OC)c1` [B10, (E)-3-(quinolin-3-yl)-1-(2,4,6-trimethoxyphenyl)prop-2-en-1-one]: the IC50 in assay [1] (Homo sapiens, HepG2, 48 h) stood at 8.92 ± 0.68 µM; in assay [2] (Homo sapiens, A549, 48 h), 15.5 ± 0.74 µM; in assay [3] (setting [5]), 13.6 ± 0.83 µM; in assay [4] (setting [6]), 10.7 ± 0.62 µM.

`COc1cc(OC)c(C(=O)/C=C/c2ccc(OCC3CC3)cc2)c(OC)c1` [C1, (E)-3-(4-(cyclopropylmethoxy)phenyl)-1-(2,4,6-trimethoxyphenyl)prop-2-en-1-one]: the half-inhibitory concentration (IC50) is 39.3 ± 1.55 µM in assay [1] (Homo sapiens, HepG2, 48 h); > 100 µM in assay [2] (Homo sapiens, A549, 48 h); 45.5 ± 1.59 µM in assay [3] (setting [5]); > 100 µM in assay [4] (setting [6]).

As for “(E)-3-(3-hydroxy-4-methoxyphenyl)-1-(2,4,6-trimethoxyphenyl)prop-2-en-1-one [A5]”, the IC50 in assay [1] (MTT, 48 h, HepG2) was found to be 40.7 ± 1.29 µM; in assay [2] (MTT, 48 h, A549), 70.9 ± 1.82 µM; in assay [3] (setting [7]), 38.8 ± 1.21 µM; in assay [4] (setting [8]), 24.7 ± 0.94 µM.

Regarding `COc1cc(OC)c(C(=O)/C=C/c2coc(Br)c2)c(OC)c1` [B8, (E)-3-(5-bromofuran-3-yl)-1-(2,4,6-trimethoxyphenyl)prop-2-en-1-one], the half-maximal inhibitory concentration (IC50) was 20.4 ± 1.52 µM in assay [1] (Homo sapiens, HepG2, 48 h); > 100 µM in assay [2] (Homo sapiens, A549, 48 h); 49.8 ± 1.43 µM in assay [3] (setting [5]); 48.8 ± 1.45 µM in assay [4] (setting [6]).

Regarding `COc1cc(OC)c(C(=O)/C=C/c2ccoc2)c(OC)c1` [B7, (E)-3-(furan-3-yl)-1-(2,4,6-trimethoxyphenyl)prop-2-en-1-one], the IC50 in assay [1] (Homo sapiens, HepG2, 48 h) came out at 61.4 ± 1.34 µM; in assay [2] (Homo sapiens, A549, 48 h), 47.4 ± 2.12 µM; in assay [3] (setting [5]) it was 81.3 ± 2.44 µM; in assay [4] (setting [6]) it was 82.9 ± 2.65 µM.

`COc1cc(OC)c(C(=O)/C=C/c2ccccn2)c(OC)c1` [B1, (E)-3-(pyridin-2-yl)-1-(2,4,6-trimethoxyphenyl)prop-2-en-1-one]: the half-inhibitory concentration (IC50) in assay [1] (Homo sapiens, HepG2, 48 h) was determined as 10.8 ± 0.39 µM; in assay [2] (Homo sapiens, A549, 48 h), 10.6 ± 0.38 µM; in assay [3] (setting [5]) it was 11.9 ± 0.44 µM; in assay [4] (setting [6]), 8.74 ± 0.63 µM.

As for `COc1cc(OC)c(C(=O)/C=C/c2ccc(-c3ccc(F)cc3)cc2)c(OC)c1` [B13, (E)-3-(4′-fluoro-[1,1′-biphenyl]-4-yl)-1-(2,4,6-trimethoxyphenyl)prop-2-en-1-one], the IC50 in assay [1] (Homo sapiens, HepG2, 48 h) was determined as 25.6 ± 0.77 µM; in assay [2] (Homo sapiens, A549, 48 h) it was 40.6 ± 1.51 µM; in assay [3] (setting [5]) it was 30.5 ± 0.89 µM; in assay [4] (setting [6]) it was 35.3 ± 1.14 µM.

For “(E)-3-(3,5-dimethoxyphenyl)-1-(2,4,6-trimethoxyphenyl)prop-2-en-1-one [A4]”, the 50% inhibitory concentration (IC50) in assay [1] (MTT, 48 h, HepG2) worked out at 33.4 ± 1.37 µM; in assay [2] (MTT, 48 h, A549), 71.2 ± 1.56 µM; in assay [3] (setting [7]), 32.3 ± 1.31 µM; in assay [4] (setting [8]) it was 32.4 ± 1.29 µM.

Consider `COc1cc(OC)c(C(=O)/C=C/c2ccc(OCc3ccccn3)cc2)c(OC)c1` [C6, (E)-3-(4-(pyridin-2-ylmethoxy)phenyl)-1-(2,4,6-trimethoxyphenyl)prop-2-en-1-one], for which the 50% inhibitory concentration (IC50) in assay [1] (Homo sapiens, HepG2, 48 h) is > 100 µM; in assay [2] (Homo sapiens, A549, 48 h), 74.2 ± 1.84 µM; in assay [3] (setting [5]), > 100 µM; in assay [4] (setting [6]) it was > 100 µM.

Regarding `COc1cc(OC)c(C(=O)/C=C/c2c(OC)cc(OC)c(C)c2OC)c(OC)c1` [A6, (E)-3-(2,4,6-trimethoxy-3-methylphenyl)-1-(2,4,6-trimethoxyphenyl)prop-2-en-1-one], the half-inhibitory concentration (IC50) in assay [1] (Homo sapiens, HepG2, 48 h) is > 100 µM; in assay [2] (Homo sapiens, A549, 48 h), 63.3 ± 1.41 µM; in assay [3] (setting [5]), > 100 µM; in assay [4] (setting [6]) it was > 100 µM.

Take `COc1cc(OC)c(C(=O)/C=C/c2ccc(OCc3cnc4ccccc4c3)cc2)c(OC)c1` [C9, (E)-3-(4-(quinolin-3-ylmethoxy)phenyl)-1-(2,4,6-trimethoxyphenyl)prop-2-en-1-one]: the IC50 is > 100 µM in assay [1] (Homo sapiens, HepG2, 48 h); > 100 µM in assay [2] (Homo sapiens, A549, 48 h); > 100 µM in assay [3] (setting [5]); > 100 µM in assay [4] (setting [6]).
